Active and inactive are the calls of the source.
Tests used:
Oryza sativa = experiment: Phytotoxicity against Oryza sativa cv. Koshihikari (rice) at 2000 g a.i/ha measured after 14 days; type: organism-based; settings: in vivo, 336 h
Echinochloa oryzicola [1] = experiment: Pre-emergence herbicidal activity against Echinochloa oryzicola at 2000 g a.i/ha measured after 14 days; type: functional, organism-based
Eleocharis acicularis [2] = experiment: Post-emergence herbicidal activity against Eleocharis acicularis assessed as bleaching of stem/leaf parts; type: functional, organism-based; note: test concentration or dose not given here
Eleocharis acicularis [3] = experiment: Pre-emergence herbicidal activity against Eleocharis acicularis assessed as bleaching of stem/leaf parts; type: functional, organism-based
Ammannia multiflora [4] = experiment: Pre-emergence herbicidal activity against Ammannia multiflora assessed as bleaching of stem/leaf parts; type: functional, organism-based
Rotala indica [5] = experiment: Pre-emergence herbicidal activity against Rotala indica assessed as bleaching of stem/leaf parts; type: functional, organism-based
Elatine triandra [6] = experiment: Pre-emergence herbicidal activity against Elatine triandra assessed as bleaching of stem/leaf parts; type: functional, organism-based
Lindernia procumbens [7] = experiment: Pre-emergence herbicidal activity against Lindernia procumbens assessed as bleaching of stem/leaf parts; type: functional, organism-based
[8] = system: Schoenoplectiella juncoides; experiment: Pre-emergence herbicidal activity against Schoenoplectiella juncoides assessed as bleaching of stem/leaf parts; type: functional, organism-based
Pontederia vaginalis [9] = experiment: Pre-emergence herbicidal activity against Monochoria vaginalis assessed as bleaching of stem/leaf parts; type: functional, organism-based
Cyperus difformis [10] = experiment: Pre-emergence herbicidal activity against Cyperus difformis assessed as bleaching of stem/leaf parts; type: functional, organism-based
Echinochloa oryzicola [11] = experiment: Pre-emergence herbicidal activity against Echinochloa oryzicola assessed as bleaching of stem/leaf parts; type: functional, organism-based
Ammannia multiflora [12] = experiment: Post-emergence herbicidal activity against Ammannia multiflora assessed as bleaching of stem/leaf parts; type: functional, organism-based; note: test concentration or dose not given here
Elatine triandra [13] = experiment: Post-emergence herbicidal activity against Elatine triandra assessed as bleaching of stem/leaf parts; type: functional, organism-based; note: test concentration or dose not given here
Rotala indica [14] = experiment: Post-emergence herbicidal activity against Rotala indica assessed as bleaching of stem/leaf parts; type: functional, organism-based; note: test concentration or dose not given here
[15] = system: Schoenoplectiella juncoides; experiment: Post-emergence herbicidal activity against Schoenoplectiella juncoides assessed as bleaching of stem/leaf parts; type: functional, organism-based; note: test concentration or dose not given here
Lindernia procumbens [16] = experiment: Post-emergence herbicidal activity against Lindernia procumbens assessed as bleaching of stem/leaf parts; type: functional, organism-based; note: test concentration or dose not given here
Pontederia vaginalis [17] = experiment: Post-emergence herbicidal activity against Monochoria vaginalis assessed as bleaching of stem/leaf parts; type: functional, organism-based; note: test concentration or dose not given here
Cyperus difformis [18] = experiment: Post-emergence herbicidal activity against Cyperus difformis assessed as bleaching of stem/leaf parts; type: functional, organism-based; note: test concentration or dose not given here
Echinochloa oryzicola [19] = experiment: Post-emergence herbicidal activity against Echinochloa oryzicola assessed as bleaching of stem/leaf parts; type: functional, organism-based; note: test concentration or dose not given here
Eleocharis acicularis [20] = experiment: Pre-emergence herbicidal activity against Eleocharis acicularis at 2000 g a.i/ha measured after 14 days; type: functional, organism-based
[21] = system: Schoenoplectiella juncoides; experiment: Pre-emergence herbicidal activity against Schoenoplectiella juncoides at 2000 g a.i/ha measured after 14 days; type: functional, organism-based
Pontederia vaginalis [22] = experiment: Pre-emergence herbicidal activity against Monochoria vaginalis at 2000 g a.i/ha measured after 14 days; type: functional, organism-based
Ammannia multiflora [23] = experiment: Pre-emergence herbicidal activity against Ammannia multiflora at 2000 g a.i/ha measured after 14 days; type: functional, organism-based
Rotala indica [24] = experiment: Pre-emergence herbicidal activity against Rotala indica at 2000 g a.i/ha measured after 14 days; type: functional, organism-based
Elatine triandra [25] = experiment: Pre-emergence herbicidal activity against Elatine triandra at 2000 g a.i/ha measured after 14 days; type: functional, organism-based
Lindernia procumbens [26] = experiment: Pre-emergence herbicidal activity against Lindernia procumbens at 2000 g a.i/ha measured after 14 days; type: functional, organism-based
Cyperus difformis [27] = experiment: Pre-emergence herbicidal activity against Cyperus difformis at 2000 g a.i/ha measured after 14 days; type: functional, organism-based

## CCCN(CC)C(=O)c1cn(C)nc1OCc1cc(F)cc(F)c1
Oryza sativa
  Activity: Non-toxic
Echinochloa oryzicola [1]
  Activity: Active
Eleocharis acicularis [2]
  Activity: Active
Eleocharis acicularis [3]
  Activity: Active
Ammannia multiflora [4]
  Activity: Active
Rotala indica [5]
  Activity: Active
Elatine triandra [6]
  Activity: Active
Lindernia procumbens [7]
  Activity: Active
[8]
  Activity: Active
Pontederia vaginalis [9]
  Activity: Active
Cyperus difformis [10]
  Activity: Active
Echinochloa oryzicola [11]
  Activity: Active
Ammannia multiflora [12]
  Activity: Active
Elatine triandra [13]
  Activity: Active
Rotala indica [14]
  Activity: Active
[15]
  Activity: Active
Lindernia procumbens [16]
  Activity: Active
Pontederia vaginalis [17]
  Activity: Active
Cyperus difformis [18]
  Activity: Active
Echinochloa oryzicola [19]
  Activity: Active
Eleocharis acicularis [20]
  Activity: inactive
[21]
  Activity: Active
Pontederia vaginalis [22]
  Activity: Active
Ammannia multiflora [23]
  Activity: Active
Rotala indica [24]
  Activity: Active
Elatine triandra [25]
  Activity: Active
Lindernia procumbens [26]
  Activity: Active
Cyperus difformis [27]
  Activity: Active

## CCCN(CC)C(=O)c1cn(C)nc1OCc1ccccc1C(F)(F)F
Oryza sativa
  Activity: Non-toxic
Echinochloa oryzicola [1]
  Activity: inactive
Eleocharis acicularis [2]
  Activity: Active
Eleocharis acicularis [3]
  Activity: Active
Ammannia multiflora [4]
  Activity: Active
Rotala indica [5]
  Activity: Active
Elatine triandra [6]
  Activity: Active
Lindernia procumbens [7]
  Activity: Active
[8]
  Activity: Active
Pontederia vaginalis [9]
  Activity: Active
Cyperus difformis [10]
  Activity: Active
Echinochloa oryzicola [11]
  Activity: Active
Ammannia multiflora [12]
  Activity: Active
Elatine triandra [13]
  Activity: Active
Rotala indica [14]
  Activity: Active
[15]
  Activity: Active
Lindernia procumbens [16]
  Activity: Active
Pontederia vaginalis [17]
  Activity: Active
Cyperus difformis [18]
  Activity: Active
Echinochloa oryzicola [19]
  Activity: Active
Eleocharis acicularis [20]
  Activity: inactive
[21]
  Activity: inactive
Pontederia vaginalis [22]
  Activity: inactive
Ammannia multiflora [23]
  Activity: inactive
Rotala indica [24]
  Activity: inactive
Elatine triandra [25]
  Activity: inactive
Lindernia procumbens [26]
  Activity: inactive
Cyperus difformis [27]
  Activity: inactive
